Some test systems named below: NCI-H226 lung; HOP-62 NSCLC; M14 melanoma; 786-0 renal; U251 CNS; SK-MEL-28 melanoma; SNB-19 CNS; SF-268 CNS.
Holding throughout (experiment): NCI tumour cell line growth inhibition, 48 h

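Protocol summary: plate cells (96-well), add compound at 5 concentrations, incubate 48 h, interpolate endpoints linearly. At the GI50, growth is halved. TGI: concentration producing complete growth inhibition.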

As to `C=C1C(=O)O[C@H]2[C@H]1CC/C(CNC(=O)c1cc3cc(OC)ccc3[nH]1)=C\CC[C@@]1(C)O[C@@H]21`, the GI50 was 1.71 µM in the assay on NCI-H226 lung; 3.22 µM in the assay on HOP-62 NSCLC; 1.5 µM with M14 melanoma; 1.51 µM with 786-0 renal; 3.35 µM in the assay on U251 CNS; 1.62 µM with SK-MEL-28 melanoma. Also, the figures for the GI50 in the assay on SNB-19 CNS and in the assay with SF-268 CNS were 7.94 µM and 1.79 µM, respectively. Also, the TGI is 4.6 µM in the assay on NCI-H226 lung; 13.8 µM in the assay on HOP-62 NSCLC; 3.54 µM in the assay with M14 melanoma; 3.2 µM with 786-0 renal; 12.6 µM in the assay on U251 CNS; 4.23 µM with SK-MEL-28 melanoma. Further, the TGI in the assay with SNB-19 CNS is 21.7 µM; in the assay on SF-268 CNS, 4.47 µM.

Consider `Cc1cc(C)c([O-])c(CN(C)CCN(C)Cc2cc(C)cc(C)c2[O-])c1.O=C([O-])c1cccc(C(=O)[O-])n1.[Ti+4]`, for which the GI50 in the assay with NCI-H226 lung was 2.35 µM; with HOP-62 NSCLC it was 2.92 µM; in the assay on M14 melanoma it was 1.7 µM; in the assay with 786-0 renal, 1.83 µM; in the assay with U251 CNS it was 2.92 µM; in the assay with SK-MEL-28 melanoma, 2.42 µM. Besides, the GI50 in the assay on SNB-19 CNS was 3.25 µM; in the assay with SF-268 CNS, 3.91 µM. Moreover, the TGI in the assay on NCI-H226 lung is greater than 100 µM; in the assay with HOP-62 NSCLC it was 8.47 µM; with M14 melanoma it was greater than 100 µM; in the assay with 786-0 renal, greater than 100 µM; with U251 CNS, greater than 100 µM; in the assay with SK-MEL-28 melanoma it was 8.37 µM. The TGI in the assay with SNB-19 CNS and in the assay with SF-268 CNS was greater than 100 µM throughout.

Turning to `O=c1c(Oc2ccc(F)cc2F)cc2cnc(NC3CCOCC3)nc2n1C1CCS(=O)(=O)CC1`, the GI50 with NCI-H226 lung, in the assay on HOP-62 NSCLC, in the assay on M14 melanoma, in the assay with 786-0 renal, in the assay on U251 CNS and in the assay with SK-MEL-28 melanoma was greater than 25 µM throughout. Also, the GI50 in the assay with SNB-19 CNS and in the assay on SF-268 CNS was greater than 25 µM throughout. For the same compound, the TGI with NCI-H226 lung, in the assay with HOP-62 NSCLC, with M14 melanoma, with 786-0 renal, in the assay on U251 CNS and in the assay on SK-MEL-28 melanoma was greater than 25 µM in each case. Moreover, the TGI in the assay with SNB-19 CNS and in the assay with SF-268 CNS was greater than 25 µM throughout.

As for `CC(=O)C(=[N+]=[N-])C(=O)NCC#N`, the TGI in the assay on NCI-H226 lung, in the assay with HOP-62 NSCLC, with M14 melanoma, with 786-0 renal, in the assay on U251 CNS and in the assay on SK-MEL-28 melanoma was greater than 10 µM in each case. In addition, the TGI with SNB-19 CNS and in the assay with SF-268 CNS was greater than 10 µM in each case.

With `CCOC(=O)c1cc(C#N)c(=O)n(/N=C(\C)c2ccncc2)c1O`, the GI50 in the assay on NCI-H226 lung, in the assay with HOP-62 NSCLC, in the assay with M14 melanoma, in the assay on 786-0 renal, with U251 CNS and with SK-MEL-28 melanoma was greater than 100 µM each time. For the same compound, the GI50 in the assay on SNB-19 CNS and with SF-268 CNS was greater than 100 µM each time. Further, the TGI with NCI-H226 lung, with HOP-62 NSCLC, with M14 melanoma, in the assay on 786-0 renal, in the assay with U251 CNS and with SK-MEL-28 melanoma was greater than 100 µM each time. Besides, the TGI in the assay on SNB-19 CNS and in the assay on SF-268 CNS was greater than 100 µM each time.

`OC1(CCc2ccccc2)COC(C(F)(F)F)(C(F)(F)F)C1` (stereo unspecified): the TGI in the assay on NCI-H226 lung, with HOP-62 NSCLC, in the assay on M14 melanoma, in the assay with 786-0 renal, in the assay on U251 CNS and with SK-MEL-28 melanoma was greater than 100 µM throughout. Besides, the TGI in the assay with SNB-19 CNS and in the assay on SF-268 CNS was greater than 100 µM throughout.

Turning to `CC(=O)c1c(C)[nH]c(-c2nc3ccc(N4CCN(C)CC4)cc3[nH]2)c1-c1ccc(OCC2CCOCC2)cc1`, the GI50 in the assay with NCI-H226 lung is 1.87 µM; in the assay with HOP-62 NSCLC, 0.524 µM; in the assay with M14 melanoma it was 0.63 µM; in the assay with 786-0 renal, 1.31 µM; with U251 CNS, 2.1 µM; in the assay with SK-MEL-28 melanoma it was 1.62 µM. The GI50 in the assay on SNB-19 CNS was 2.2 µM; in the assay with SF-268 CNS, 3.52 µM. For the same compound, the TGI amounted to 21.2 µM in the assay on NCI-H226 lung; 14.7 µM in the assay with HOP-62 NSCLC; 4.64 µM in the assay on M14 melanoma; 14.5 µM in the assay with 786-0 renal; 17.5 µM in the assay with U251 CNS; 17 µM in the assay with SK-MEL-28 melanoma. For the same compound, the TGI in the assay with SNB-19 CNS was 25.1 µM; in the assay with SF-268 CNS it was 20.1 µM.

Regarding `Nc1c(C(=O)c2ccc(Cl)cc2)sc(Nc2ccccc2)c1-c1nc2ccccc2s1`, the GI50 in the assay with NCI-H226 lung was 1.58 µM; with HOP-62 NSCLC it was 3.71 µM; in the assay on M14 melanoma, 2.65 µM; in the assay on 786-0 renal, 2.8 µM; in the assay with U251 CNS it was 3.06 µM; with SK-MEL-28 melanoma, 4.31 µM. For the same compound, the GI50 was 4.56 µM with SNB-19 CNS and 1.44 µM in the assay on SF-268 CNS. Moreover, the TGI with NCI-H226 lung is greater than 100 µM; in the assay on HOP-62 NSCLC it was 65.8 µM; in the assay with M14 melanoma, greater than 100 µM; in the assay with 786-0 renal, 8.18 µM; with U251 CNS, 36.3 µM; in the assay on SK-MEL-28 melanoma, greater than 100 µM. Moreover, the TGI with SNB-19 CNS and in the assay with SF-268 CNS was greater than 100 µM each time.

In the case of `O=C(O[C@H]1CN[C@H](C#Cc2cc3ncnc(Nc4ccc5c(ccn5Cc5cc(F)ccc5F)c4)c3s2)C1)N1CCOCC1`, the GI50 is 3.2 µM in the assay with NCI-H226 lung; 3.22 µM with HOP-62 NSCLC; 6.26 µM with M14 melanoma; 4.55 µM in the assay with 786-0 renal; 3.61 µM in the assay with U251 CNS; 4.06 µM in the assay with SK-MEL-28 melanoma. Moreover, the GI50 in the assay on SNB-19 CNS is 4.46 µM; in the assay with SF-268 CNS it was 3.23 µM. Further, the TGI amounted to 9.64 µM with NCI-H226 lung; 8.06 µM with HOP-62 NSCLC; 17.1 µM with M14 melanoma; 12.6 µM in the assay with 786-0 renal; 8.25 µM in the assay on U251 CNS; 7.98 µM in the assay with SK-MEL-28 melanoma. Besides, the TGI with SNB-19 CNS was greater than 25 µM; with SF-268 CNS it was 8.8 µM.

On to `CCN(CC)C(=C(C(Cl)=C(Cl)Cl)[N+](=O)[O-])N(CC)CC`, for which the TGI in the assay on NCI-H226 lung, in the assay with HOP-62 NSCLC, with M14 melanoma, with 786-0 renal, in the assay with U251 CNS and in the assay on SK-MEL-28 melanoma was greater than 100 µM each time. In addition, the TGI with SNB-19 CNS and in the assay on SF-268 CNS was greater than 100 µM each time.

For the origin of these results see PubChem BioAssay (NCI).
